Measured values: patent US9809574B2, “Isoindoline or isoquinoline compounds, a process for their preparation and pharmaceutical compositions containing them” (LES LABORATOIRES SERVIER, priority 2013, dated 2017)
Structures can show the parent of a compound that is named as a salt.

Legend:
[1] = biological target: Bcl-2 protein (histag-Bcl-2, UniProtKB P10415) (Homo sapiens (Human), UniProt P10415); test: Inhibition of Bcl-2 by the fluorescence polarisation technique; format: binding; conditions: fluorescence polarisation test; incubation for 2 hours; read-out: IC50 (nM) Bcl-2 FP
Sequence of Bcl-2 protein (P10415 whole entry): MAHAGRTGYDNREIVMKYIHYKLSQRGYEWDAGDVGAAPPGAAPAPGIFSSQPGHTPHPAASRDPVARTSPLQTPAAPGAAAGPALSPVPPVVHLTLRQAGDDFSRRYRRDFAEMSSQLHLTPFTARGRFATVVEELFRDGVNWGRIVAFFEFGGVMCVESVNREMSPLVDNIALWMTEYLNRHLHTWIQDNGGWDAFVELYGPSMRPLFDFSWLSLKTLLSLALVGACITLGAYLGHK
Source text: For partial inhibitors, the percentage fluorescence polarisation inhibition for a given concentration of the test compound is indicated.

[2] = system: RS4; 11 leukaemia cell line; test: In vitro cytotoxicity, Microculture Tetrazolium Assay (MTT); format: cell-based; conditions: Homo sapiens, 11 cells exposed for 48 hours
Method: The cytotoxicity studies were carried out on the RS4; 11 leukaemia cell line and on H146 small Cell Lung Carcinoma cell line. The cells are distributed onto microplates and exposed to the test compounds for 48 hours. The cell viability is then quantified by a colorimetric assay, the Microculture Tetrazolium Assay (Cancer Res., 1987, 47, 939-942).

IC50 [1] [nM]	SMILES	IC50 [2] [nM]
20	C[C@@H]1Cc2ccccc2CN1C(=O)c1cc2c(cc1-c1cc(C(=O)N(C)c3ccc(O)cc3)c3n1CCCC3)CN(C(=O)OCc1ccccc1)C2 [Example 62, Benzyl 5-{1-[(4-hydroxyphenyl)(methyl)carbamoyl]-5,6,7,8-tetrahydroindolizin-3-yl}-6-[(3R)-3-methyl-1,2,3,4-tetrahydroisoquinoline-2-carbonyl]-2,3-dihydro-1H-isoindole-2-carboxylate]	113
6.5	C[C@@H]1Cc2ccccc2CN1C(=O)c1cc2c(cc1-c1cc(C(=O)N(C)c3ccc(O)cc3)c3n1CCCC3)CN(C(=O)Nc1ccc(N3CCN(C)CC3)cc1)C2 [Example 65, 5-{1-[(4-Hydroxyphenyl)(methyl)carbamoyl]-5,6,7,8-tetrahydroindolizin-3-yl}-6-[(3R)-3-methyl-1,2,3,4-tetrahydroisoquinoline-2-carbonyl]-N-[4-(4-methylpiperazin-1-yl)phenyl]-2,3-dihydro-1H-isoindole-2-carboxamide]	51
16	C[C@@H]1Cc2ccccc2CN1C(=O)c1cc2c(cc1-c1cc(C(=O)N(C)c3ccc(O)cc3)c3n1CCCC3)CN(C(=O)N1CCC(c3ccccc3)C1)C2 (stereo partly drawn) [Example 66, N-(4-Hydroxyphenyl)-N-methyl-3-{6-[(3R)-3-methyl-1,2,3,4-tetrahydroisoquinoline-2-carbonyl]-2-(3-phenylpyrrolidine-1-carbonyl)-2,3-dihydro-1H-isoindol-5-yl}-5,6,7,8-tetrahydroindolizine-1-carboxamide]	80
2.9	Cc1c(C(=O)N(C)c2ccc(O)cc2)cc(-c2cc3c(cc2C(=O)N2Cc4ccccc4C[C@H]2C)CN(C(=O)Oc2ccccc2)CC3)n1C [Example 68, Phenyl 6-{4-[(4-hydroxyphenyl)(methyl)carbamoyl]-1,5-dimethyl-1H-pyrrol-2-yl}-7-[(3R)-3-methyl-1,2,3,4-tetrahydroisoquinoline-2-carbonyl]-1,2,3,4-tetrahydroisoquinoline-2-carboxylate]	1.8
21	C[C@@H]1Cc2ccccc2CN1C(=O)c1cc2c(cc1-c1cc(C(=O)N(C)c3ccc(O)cc3)c3n1CCCC3)CN(CCc1ccccc1)C2 [Example 72, N-(4-Hydroxyphenyl)-N-methyl-3-{6-[(3R)-3-methyl-1,2,3,4-tetrahydroisoquinoline-2-carbonyl]-2-(2-phenylethyl)-2,3-dihydro-1H-isoindol-5-yl}-5,6,7,8-tetrahydroindolizine-1-carboxamide]	229
4.3	C[C@@H]1Cc2ccccc2CN1C(=O)c1cc2c(cc1-c1cc(C(=O)N(C)c3ccc(O)cc3)c3n1CCCC3)CCN(C(=O)NCc1ccccc1)C2 [Example 73, N-Benzyl-6-{1-[(4-hydroxyphenyl)(methyl)carbamoyl]-5,6,7,8-tetrahydroindolizin-3-yl}-7-[(3R)-3-methyl-1,2,3,4-tetrahydroisoquinoline-2-carbonyl]-1,2,3,4-tetrahydroisoquinoline-2-carboxamide]	36
24	C[C@@H]1Cc2ccccc2CN1C(=O)c1cc2c(cc1-c1cc(C(=O)N(C)c3ccc(O)cc3)c3n1CCCC3)CN(C(=O)NC(C)(C)C)C2 [Example 76, N-tert-Butyl-5-{1-[(4-hydroxyphenyl)(methyl)carbamoyl]-5,6,7,8-tetrahydroindolizin-3-yl}-6-[(3R)-3-methyl-1,2,3,4-tetrahydroisoquinoline-2-carbonyl]-2,3-dihydro-1H-isoindole-2-carboxamide]	> 150
4.4	CN(C(=O)c1cc(-c2cc3c(cc2C(=O)N2Cc4ccccc4C[C@H]2CN2CCOCC2)CN(C(=O)NCc2ccccc2)CC3)n2c1CCCC2)c1ccc(O)cc1 [Example 78, N-Benzyl-6-{1-[(4-hydroxyphenyl)(methyl)carbamoyl]-5,6,7,8-tetrahydroindolizin-3-yl}-7-[(3S)-3-(morpholin-4-ylmethyl)-1,2,3,4-tetrahydroisoquinoline-2-carbonyl]-1,2,3,4-tetrahydroisoquinoline-2-carboxamide]	142
5.6	CNC(=O)N1CCc2cc(-c3cc(C(=O)N(C)c4ccc(O)cc4)c4n3CCCC4)c(C(=O)N3Cc4ccccc4C[C@H]3C)cc2C1 [Example 79, 6-{1-[(4-Hydroxyphenyl)(methyl)carbamoyl]-5,6,7,8-tetrahydroindolizin-3-yl}-N-methyl-7-[(3R)-3-methyl-1,2,3,4-tetrahydroisoquinoline-2-carbonyl]-1,2,3,4-tetrahydroisoquinoline-2-carboxamide]	> 150
5.5	Cc1c(C(=O)N(C)c2ccc(O)cc2)cc(-c2cc3c(cc2C(=O)N2Cc4ccccc4C[C@H]2C)CN(C(=O)Cc2ccccc2)C3)n1C [Example 80, N-(4-Hydroxyphenyl)-N,1,2-trimethyl-5-{6-[(3R)-3-methyl-1,2,3,4-tetrahydroisoquinoline-2-carbonyl]-2-(2-phenylacetyl)-2,3-dihydro-1H-isoindol-5-yl}-1H-pyrrole-3-carboxamide]	71

Further lines, the molecule ahead of its results:

SMILES	IC50 [1] [nM]	IC50 [2] [nM]
Cc1c(C(=O)N(C)c2ccc(O)cc2)cc(-c2cc3c(cc2C(=O)N2Cc4ccccc4C[C@H]2C)CN(C(=O)Oc2ccccc2)C3)n1C [Example 63, Phenyl 5-{4-[(4-hydroxyphenyl)(methyl)carbamoyl]-1,5-dimethyl-1H-pyrrol-2-yl}-6-[(3R)-3-methyl-1,2,3,4-tetrahydroisoquinoline-2-carbonyl]-2,3-dihydro-1H-isoindole-2-carboxylate]	4.4	12
C[C@@H]1Cc2ccccc2CN1C(=O)c1cc2c(cc1-c1cc(C(=O)N(C)c3ccc(O)cc3)c3n1CCCC3)CN(C(=O)OCc1cnc3[nH]ccc3c1)C2 [Example 64, 1H-pyrrolo[2,3-b]pyridin-5-ylmethyl 5-{1-[(4-hydroxyphenyl)(methyl)carbamoyl]-5,6,7,8-tetrahydroindolizin-3-yl}-6-[(3R)-3-methyl-1,2,3,4-tetrahydroisoquinoline-2-carbonyl]-2,3-dihydro-1H-isoindole-2-carboxylate]	27	204
C[C@@H]1Cc2ccccc2CN1C(=O)c1cc2c(cc1-c1cc(C(=O)N(C)c3ccc(O)cc3)c3n1CCCC3)CCN(C(=O)N1CCC(c3ccccc3)C1)C2 (stereo partly drawn) [Example 67, N-(4-Hydroxyphenyl)-N-methyl-3-{7-[(3R)-3-methyl-1,2,3,4-tetrahydroisoquinoline-2-carbonyl]-2-(3-phenylpyrrolidine-1-carbonyl)-1,2,3,4-tetrahydroisoquinolin-6-yl}-5,6,7,8-tetrahydroindolizine-1-carboxamide]	9.4	51
CN(C(=O)c1cc(-c2cc3c(cc2C(=O)N2Cc4ccccc4C[C@H]2CN2CCOCC2)CN(C(=O)Oc2ccccc2)CC3)n2c1CCCC2)c1ccc(O)cc1 [Example 69, Phenyl 6-{1-[(4-hydroxyphenyl)(methyl)carbamoyl]-5,6,7,8-tetrahydroindolizin-3-yl}-7-[(3S)-3-(morpholin-4-ylmethyl)-1,2,3,4-tetrahydroisoquinoline-2-carbonyl]-1,2,3,4-tetrahydroisoquinoline-2-carboxylate hydrochloride]	3.1	3.46
CN(C(=O)c1cc(-c2cc3c(cc2C(=O)N2Cc4ccccc4C[C@H]2CN2CCOCC2)CN(C(=O)Cc2ccccc2)CC3)n2c1CCCC2)c1ccc(O)cc1 [Example 70, N-(4-Hydroxyphenyl)-N-methyl-3-{7-[(3S)-3-(morpholin-4-ylmethyl)-1,2,3,4-tetrahydroisoquinoline-2-carbonyl]-2-(2-phenylacetyl)-1,2,3,4-tetrahydroisoquinolin-6-yl}-5,6,7,8-tetrahydroindolizine-1-carboxamide]	5.1	9.8
C[C@@H]1Cc2ccccc2CN1C(=O)c1cc2c(cc1-c1cc(C(=O)N(C)c3ccc(O)cc3)c3n1CCCC3)CCN(C(=O)Nc1ccccc1)C2 [Example 71, 6-{1-[(4-Hydroxyphenyl)(methyl)carbamoyl]-5,6,7,8-tetrahydroindolizin-3-yl}-7-[(3R)-3-methyl-1,2,3,4-tetrahydroisoquinoline-2-carbonyl]-N-phenyl-1,2,3,4-tetrahydroisoquinoline-2-carboxamide]	3.7	9.9
C[C@@H]1Cc2ccccc2CN1C(=O)c1cc2c(cc1-c1cc(C(=O)N(C)c3ccc(O)cc3)c3n1CCCC3)CCN(C(=O)N(C)c1ccccc1)C2 [Example 74, 6-{1-[(4-Hydroxyphenyl)(methyl)carbamoyl]-5,6,7,8-tetrahydroindolizin-3-yl}-N-methyl-7-[(3R)-3-methyl-1,2,3,4-tetrahydroisoquinoline-2-carbonyl]-N-phenyl-1,2,3,4-tetrahydroisoquinoline-2-carboxamide]	6.1	94
Cc1c(C(=O)N(C)c2ccc(O)cc2)cc(-c2cc3c(cc2C(=O)N2Cc4ccccc4C[C@H]2C)CN(C(=O)Cc2ccccc2)CC3)n1C [Example 75, N-(4-Hydroxyphenyl)-N,1,2-trimethyl-5-{7-[(3R)-3-methyl-1,2,3,4-tetrahydroisoquinoline-2-carbonyl]-2-(2-phenylacetyl)-1,2,3,4-tetrahydroisoquinolin-6-yl}-1H-pyrrole-3-carboxamide]	4	6.2
CN(C(=O)c1cc(-c2cc3c(cc2C(=O)N2Cc4ccccc4C[C@H]2CN2CCOCC2)CN(C(=O)Nc2ccccc2)CC3)n2c1CCCC2)c1ccc(O)cc1 [Example 77, 6-{1-[(4-Hydroxyphenyl)(methyl)carbamoyl]-5,6,7,8-tetrahydroindolizin-3-yl}-7-[(3S)-3-(morpholin-4-ylmethyl)-1,2,3,4-tetrahydroisoquinoline-2-carbonyl]-N-phenyl-1,2,3,4-tetrahydroisoquinoline-2-carboxamide]	4	84
